# Reference: US7368444B2, “N-carbamoyl nitrogen-containing fused ring compounds and drugs containing these compounds as the active ingredient” (Ono Pharmaceutical Co., Ltd., priority 2002, dated 2008)
# Assays:
# [1] = molecular target: T1, MBR (Rattus norvegicus, UniProt P16257); experiment: Receptor binding: [3H]PK11195 competition binding, rat brain membrane preparation; settings: 1 nmol/L [3H]PK11195, rat brain membrane preparation; Ki from IC50 by Cheng & Prusoff
# T1 construct: After male wistar rats were decapitated followed to remove the whole brain, cerebellums were removed; from tissue; host or cells: male Wistar rat whole brain without cerebellum, crude membrane pellet (12,000 g)
# Experimental: The affinity of the compound to MBR was determined using rat brain membrane preparation. After male wistar rats were decapitated followed to remove the whole brain, cerebellums were removed. They were homogenized in ice-cold 50 mmo/L Tris-HCl buffer (pH7.4) and the homogenates were centrifuged at 12,000 g for 20 min (4° C.), and then their supernatants were discarded. The residual pellets were washed in the same buffer. The pellets resuspended in 50 mmo/L Tris-HCl buffer (pH7.4) and adjusted to about 1 mg/mL were used as rat brain membrane preparations for binding assay. The binding assay was experimented using [3H]PK11195 as a selective MBR ligand.
# To determine the amount of total binding in saturation binding study, membrane preparations, various concentrations of [^3H]PK11195, final concentraion: 0.5 vol % dimethylsulfoxide (DMSO) and 50 mmo/L Tris-HCl buffer (pH7.4) (total volume of 200 μL) were incubated for 1 hour at room temperature. To determine the amount of non-specific binding, 20 μmol/L of PK11195 was added in place of DMSO were incubated for 1 hour. The mixture rapidly was filtrated on GF/B filter soaked with 0.3% polyethyleneimine using cell harvester, which was washed twice with 50 mmo/L Tris-HCl buffer (pH7.4). After drying, the radioactivity on the filer was measured by liquid scintillation counter. The data were analyzed using analysis soft KELL (Ver. 6, BIOSOFT). The dissociation constant (KD value) was determined by using scatchard analyses.
# To determine the amount of total binding in competition binding study, membrane preparation, final concentraion: 1 nmol/L of [^3H]PK11195, final concentraion: 0.5 vol % of DMSO and 50 mmol/L Tris-HCl buffer (pH7.4) (the total volume of 200 μL) were incubated for 1 hour at room temperature. […] The reaction was terminated as above described 1 hour later, then radioactivity on the filer was measured by liquid scintillation counter. […]
# [2] = test system: rat adrenocortical mitochondria; experiment: Determination of pregnenolone in rat adrenocortical mitochondria; format: biochemical; settings: final concentration of the compound 1 μmol/L; compared with DMSO treated group
# Experimental: The steroid productivity of the present compound was evaluated using rat adrenocortical mitochondria.
# After intraperitoneal administration of 20 mg/mL (1 mL) cycloheximide, 10 IU/mL (0.3 mL) adrenocorticotropic hormone (ACTH) was intraperitoneally administered to Male SD rats 5 minutes later. Then, rats were sacrificed by cervical dislocation 20 minutes later and bilateral adrenal cortexes were extirpated at once. The extirpated adrenal cortexes were homogenized in buffer A (50 mmol/L Tris-HCl, 250 mmol/L Succrose) followed to be centrifuged at 2,000 g for 3 min (4° C.). The supernatant was centrifuged at 12,500 g for 10 min (4° C.). The residual pellet was resuspended in buffer A followed to be centrifuged at 12,500 g for 10 min (4° C.). The pellet was washed again and finally suspended in buffer B (250 mmol/L Succrose, 10 mmol/L potassium phosphate buffer, 15 mmol/L triethanolamine, 20 mmol/L potassium chloride, 5 mmol/L magnesium chloride, 10 μmol/L trilostane, 10 μmol/L SU10603) for experiments. Malate (150 mmol/L), β-NADP^+ (5 mmol/L) and the compound in a total volume of 25 μL were incubated for 5 min at 37° C. […] The radioactivity of the supernatant was measured by liquid scintillation counter. The pregnenolone content in the sample was calculated from standard curve.
Structure (SMILES),Ki [1] [nM],pregnenolone content [2]
"O=C(Nc1c(Cl)cccc1Cl)N1CCCCc2ccccc21 [7 (18), 1-(2,6-dichlorophenylcarbamoyl)-2,3,4,5-tetrahydro-1H-1-benzazepine]",0.09,
"O=C(Nc1ccc(O)cc1)N1CCCCc2ccccc21 [Example 14, 1-(4-hydroxyphenylcarbamoyl)-2,3,4,5-tetrahydro-1H-1-benzazepine]",32,
"CCCCCCN(CCCCCC)C(=O)Cc1c(-c2ccc(F)cc2)[nH]c2ccccc12 [FGIN1-27, 2-[2-(4-fluorophenyl)-1H-indol-3-yl]-N,N-dihexylacetamide]",,higher than that in DMSO treated group
"O=C(Nc1ccccc1)N1CCCCc2ccc(F)cc21 [7 (5), 8-fluoro-1-phenylcarbamoyl-2,3,4,5-tetrahydro-1H-1-benzazepine]",5.5,
